Test results: ChEMBL document CHEMBL1201862, “PubChem BioAssay data set” (2004)
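Results reflect a 48-hour exposure of cells in 96-well plates to compound at five concentrations. At the GI50, growth is halved.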 Calls of active or inactive are those of the source. No stated cut-off is given here; in the data, active = GI50 up to about 1.1 µM and inactive = higher.

Experiments:
Assay in all cases: NCI anticancer screen, dose series, 48 h
SF-268 = test system: SF-268
MDA-MB-231 = test system: MDA-MB-231
DU-145 = test system: DU-145
OVCAR-5 = test system: OVCAR-5
SK-OV-3 = test system: SK-OV-3
UO-31 = test system: UO-31
MCF7 = test system: MCF7
SF-539 = test system: SF-539
SN12C = test system: SN12C
NCI/ADR-RES = test system: NCI/ADR-RES
MOLT-4 = test system: MOLT-4
HCT-15 = test system: HCT-15
NCI-H226 = test system: NCI-H226
ACHN = test system: ACHN
UACC-257 = test system: UACC-257
SNB-75 = test system: SNB-75
OVCAR-8 = test system: OVCAR-8
SK-MEL-2 = test system: SK-MEL-2
RXF 393 = test system: RXF 393
SW-620 = test system: SW-620
NCI-H23 = test system: NCI-H23
SK-MEL-28 = test system: SK-MEL-28
EKVX = test system: EKVX
A549 = test system: A549
SF-295 = test system: SF-295
RPMI-8226 = test system: RPMI-8226
IGROV-1 = test system: IGROV-1
CAKI-1 = test system: CAKI-1
Hs-578T = test system: Hs-578T
T47D = test system: T47D
A498 = test system: A498
786-0 = test system: 786-0
Malme-3M = test system: Malme-3M
COLO 205 = test system: COLO 205
HT-29 = test system: HT-29
LOX IMVI = test system: LOX IMVI
SK-MEL-5 = test system: SK-MEL-5
SNB-19 = test system: SNB-19
KM12 = test system: KM12
PC-3 = test system: PC-3
TK-10 = test system: TK-10
U-251 = test system: U-251
K562 = test system: K562
CCRF-CEM = test system: CCRF-CEM
M14 = test system: M14
NCI-H522 = test system: NCI-H522
NCI-H460 = test system: NCI-H460
UACC-62 = test system: UACC-62
MDA-MB-435 = test system: MDA-MB-435
BT-549 = test system: BT-549
HCT-116 = test system: HCT-116
OVCAR-3 = test system: OVCAR-3
HOP-62 = test system: HOP-62
MDA-N = test system: MDA-N
HL-60 = test system: HL-60
OVCAR-4 = test system: OVCAR-4
HCC 2998 = test system: HCC 2998
SR = test system: SR
HOP-92 = test system: HOP-92

Measured: GI50

Cc1ccc(N(Cc2ccccc2)Cc2ccccc2)cc1
inactive: SF-268 50.1 µM | MDA-MB-231 > 100 µM | DU-145 > 100 µM | OVCAR-5 > 100 µM | SK-OV-3 > 100 µM | UO-31 48.4 µM | MCF7 37.8 µM | SF-539 > 100 µM | SN12C 72.3 µM | NCI/ADR-RES > 100 µM | MOLT-4 23.8 µM | NCI-H226 > 100 µM | ACHN > 100 µM | UACC-257 42.4 µM | SNB-75 68.7 µM | OVCAR-8 > 100 µM | SK-MEL-2 24.3 µM | RXF 393 59 µM | SW-620 46.3 µM | NCI-H23 > 100 µM | SK-MEL-28 54.2 µM | EKVX 35.8 µM | A549 36.9 µM | SF-295 35.1 µM | RPMI-8226 18.5 µM | IGROV-1 23.7 µM | CAKI-1 47.9 µM | Hs-578T 40.5 µM | T47D 30.9 µM | A498 61.4 µM | 786-0 73.3 µM | Malme-3M 17 µM | COLO 205 24.3 µM | HT-29 29.9 µM | LOX IMVI 34 µM | SK-MEL-5 32.1 µM | SNB-19 > 100 µM | KM12 29.5 µM | PC-3 48.4 µM | TK-10 > 100 µM | U-251 65.9 µM | K562 55.8 µM | CCRF-CEM 28 µM | M14 55.2 µM | NCI-H522 22 µM | NCI-H460 > 100 µM | UACC-62 82.4 µM | MDA-MB-435 37.2 µM | BT-549 > 100 µM | HCT-116 28.6 µM | OVCAR-3 32.8 µM | HOP-62 26.7 µM | MDA-N 33.8 µM | HL-60 51.4 µM | OVCAR-4 32.7 µM
40.9 µM: HCT-15

[N-]=[N+]=Nc1c(N2CCOCC2)c(Cl)nc2ccccc12
active: SNB-75 < 0.01 µM
inactive: SF-268 37.5 µM | HCC 2998 92.7 µM | MDA-MB-231 23.1 µM | OVCAR-5 > 100 µM | SK-OV-3 > 100 µM | UO-31 33.6 µM | SF-539 65.5 µM | SN12C 47.8 µM | NCI/ADR-RES 26.4 µM | MOLT-4 65.2 µM | NCI-H226 30.3 µM | ACHN 39.2 µM | UACC-257 27.9 µM | OVCAR-8 35.2 µM | SK-MEL-2 39 µM | RXF 393 64.6 µM | SW-620 72.3 µM | NCI-H23 30.7 µM | SK-MEL-28 59.8 µM | EKVX 9.55 µM | A549 51.2 µM | SF-295 60.5 µM | RPMI-8226 74 µM | IGROV-1 81.8 µM | CAKI-1 60.5 µM | Hs-578T 44.8 µM | T47D 65.6 µM | A498 47.9 µM | SR 92.3 µM | 786-0 86.7 µM | Malme-3M 41.5 µM | COLO 205 33.5 µM | HT-29 27.2 µM | LOX IMVI 46.6 µM | HOP-92 46.7 µM | SK-MEL-5 20.7 µM | SNB-19 > 100 µM | KM12 27 µM | PC-3 34.2 µM | TK-10 61.2 µM | U-251 82.6 µM | K562 37.6 µM | CCRF-CEM > 100 µM | M14 37.4 µM | NCI-H522 29.7 µM | NCI-H460 28.8 µM | MDA-MB-435 42.5 µM | BT-549 25.4 µM | HCT-116 39.5 µM | OVCAR-3 43.5 µM | HOP-62 58.6 µM | MDA-N 48.8 µM | HL-60 66.1 µM | OVCAR-4 33.7 µM
46.6 µM: HCT-15

Cc1nc2c(=O)n(-c3ccccc3)c(=O)n(-c3ccccc3)c2o1
> 100 µM: HCT-15
inactive: SF-268 > 100 µM | HCC 2998 > 100 µM | MDA-MB-231 > 100 µM | OVCAR-5 > 100 µM | SK-OV-3 > 100 µM | UO-31 > 100 µM | MCF7 > 100 µM | SF-539 > 100 µM | SN12C > 100 µM | NCI/ADR-RES > 100 µM | MOLT-4 > 100 µM | NCI-H226 > 100 µM | ACHN > 100 µM | UACC-257 > 100 µM | SNB-75 > 100 µM | OVCAR-8 > 100 µM | SK-MEL-2 > 100 µM | RXF 393 > 100 µM | SW-620 > 100 µM | NCI-H23 > 100 µM | EKVX > 100 µM | A549 > 100 µM | SF-295 > 100 µM | RPMI-8226 > 100 µM | IGROV-1 > 100 µM | CAKI-1 > 100 µM | Hs-578T > 100 µM | T47D > 100 µM | A498 > 100 µM | SR > 100 µM | 786-0 > 100 µM | Malme-3M > 100 µM | COLO 205 > 100 µM | HT-29 > 100 µM | LOX IMVI > 100 µM | HOP-92 > 100 µM | SK-MEL-5 > 100 µM | SNB-19 > 100 µM | KM12 > 100 µM | PC-3 > 100 µM | TK-10 58.3 µM | U-251 > 100 µM | K562 > 100 µM | CCRF-CEM > 100 µM | M14 > 100 µM | NCI-H522 > 100 µM | NCI-H460 > 100 µM | UACC-62 > 100 µM | MDA-MB-435 > 100 µM | BT-549 > 100 µM | HCT-116 > 100 µM | OVCAR-3 > 100 µM | HOP-62 > 100 µM | MDA-N > 100 µM | OVCAR-4 > 100 µM
